A value given as a limit tells only on which side of the number the result lay.

For data set [1], the target named is VMAT2 (human platelet homogenate) (Homo sapiens (Human), UniProt Q05940). The experiment in a line: Human VMAT2 Ki, slightly modified competition binding procedure (Table 11).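 Also: competition binding with 90 min incubation at 25 °C, after which filter-retained radioligand was measured by scintillation counting.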 Particulars: 10 nM 3H-dihydrotetrabenazine.
Method: Following incubation at 25° C. for 90 minutes, bound radioligand was collected by rapid filtration onto GF/B glass fiber filters using a Unifilter-96 Harvester (PerkinElmer). Filter plates were pre-treated with 0.1% polyethylenimine and allowed to dry overnight, and following harvesting the filter plates were washed with 800 d VMAT2 binding buffer. Bound radioligand was quantified by scintillation counting using a Topcount NXT (PerkinElmer).
A short description of data set [2]: In vitro human intestinal S9 hydrolysis assay (formation of compound 1-1). Particulars: human intestinal S9, 1 uM, 37° C., up to 60 minutes.
Method: Compounds (1 uM) were incubated with pooled intestinal S9 subcellular preparations (0.5 mg/mL total protein) from SD rats and humans without the addition of protease inhibitor phenylmethylsulfonylflouride. Incubations were carried out in a potassium phosphate buffer (50 mM). All concentrations were relative to the final incubation volume of 125 uL. Incubations were conducted at 37° C. for 0, 5, 10, 20, 40 and 60 minutes in a water bath and terminated by rapid mixing with 150 uL of ice-cold acetonitrile containing 1% formic acid. Internal standard was added and proteins were precipitated and removed by centrifugation prior to LC/MS analysis.

Sequence of VMAT2 (human platelet homogenate) (Q05940 whole entry): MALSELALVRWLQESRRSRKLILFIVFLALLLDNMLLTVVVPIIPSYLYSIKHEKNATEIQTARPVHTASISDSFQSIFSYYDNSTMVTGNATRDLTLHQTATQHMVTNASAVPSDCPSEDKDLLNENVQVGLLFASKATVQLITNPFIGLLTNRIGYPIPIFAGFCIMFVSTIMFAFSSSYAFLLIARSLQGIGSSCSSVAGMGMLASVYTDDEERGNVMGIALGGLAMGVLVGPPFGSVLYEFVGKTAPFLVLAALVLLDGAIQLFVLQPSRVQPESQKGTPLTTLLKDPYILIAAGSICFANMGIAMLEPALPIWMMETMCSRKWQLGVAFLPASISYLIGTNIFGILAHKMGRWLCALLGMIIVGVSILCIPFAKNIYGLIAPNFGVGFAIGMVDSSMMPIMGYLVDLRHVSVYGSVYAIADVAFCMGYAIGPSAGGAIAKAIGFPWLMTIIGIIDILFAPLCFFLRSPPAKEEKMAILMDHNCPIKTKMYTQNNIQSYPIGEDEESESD

`COc1cc2c(cc1OC)[C@H]1C[C@@H](COC(=O)N3CCCC(C(=O)O)C3)[C@H](CC(C)C)CN1CC2` (stereo partly drawn) [Compound 5-14, 1-({[(2R,3S,11bR)-9,10-dimethoxy-3-(2-methylpropyl)-1H,2H,3H,4H,6H,7H,11bH-pyrido[2,1-a]isoquinolin-2-yl]methoxy}carbonyl)piperidine-3-carboxylic acid] registered a Ki in data set [1] of over 500 nM. In data set [2], the “S9 Assay (ability to form compound 1-1)” value is “+”.
Take `COc1cc2c(cc1OC)[C@H]1C[C@@H](COC(=O)N(C)[C@H](C)C(=O)O)[C@H](CC(C)C)CN1CC2` [Compound 5-17, (2R)-2-[({[(2R,3S,11bR)-9,10-dimethoxy-3-(2-methylpropyl)-1H,2H,3H,4H,6H,7H,11bH-pyrido[2,1-a]isoquinolin-2-yl]methoxy}carbonyl)(methyl)amino]propanoic acid]: the Ki in data set [1] fell in the range of 10 to 500 nM. Also, the “S9 Assay (ability to form compound 1-1)” value in data set [2] is reported as “+”.
In turn, `COc1cc2c(cc1OC)[C@H]1C[C@@H](COC(=O)NC[C@@H](CC(=O)O)CC(C)C)[C@H](CC(C)C)CN1CC2` [Compound 5-19, (3R)-3-{[({[(2R,3S,11bR)-9,10-dimethoxy-3-(2-methylpropyl)-1H,2H,3H,4H,6H,7H,11bH-pyrido[2,1-a]isoquinolin-2-yl]methoxy}carbonyl)amino]methyl}-5-methylhexanoic acid] registered an inhibitory constant (Ki) in data set [1] of 10 to 500 nM. Besides, the “S9 Assay (ability to form compound 1-1)” value in data set [2] is listed as “+”.
The matching figures for `COc1cc2c(cc1OC)[C@H]1C[C@@H](COC(=O)N[C@@H](CC(C)C)C(=O)O)[C@H](CC(C)C)CN1CC2` [Compound 5-20, (2S)-2-[({[(2R,3S,11bR)-9,10-dimethoxy-3-(2-methylpropyl)-1H,2H,3H,4H,6H,7H,11bH-pyrido[2,1-a]isoquinolin-2-yl]methoxy}carbonyl)amino]-4-methylpentanoic acid]: 10 to 500 nM and “++”.
`COc1cc2c(cc1OC)[C@H]1C[C@@H](COC(=O)NC3(C(=O)O)CCCCC3)[C@H](CC(C)C)CN1CC2` [Compound 5-23, l-[({[(2R,3S,11bR)-9,10-dimethoxy-3-(2-methylpropyl)-1H,2H,3H,4H,6H,7H,11bH-pyrido[2,1-a]isoquinolin-2-yl]methoxy}carbonyl)amino]cyclohexane-1-carboxylic acid] returned a Ki in data set [1] of 10 to 500 nM. For the same compound, in data set [2], the “S9 Assay (ability to form compound 1-1)” value was “++”.
With `COc1cc2c(cc1OC)[C@H]1C[C@@H](COC(=O)N(C)CCCC(=O)O)[C@H](CC(C)C)CN1CC2` [Compound 5-25, 4-[({[(2R,3S,11bR)-9,10-dimethoxy-3-(2-methylpropyl)-1H,2H,3H,4H,6H,7H,11bH-pyrido[2,1-a]isoquinolin-2-yl]methoxy}carbonyl)(methyl)amino]butanoic acid], the Ki in data set [1] is over 500 nM. In addition, the “S9 Assay (ability to form compound 1-1)” value in data set [2] is reported as “+”.
`COc1cc2c(cc1OC)[C@H]1C[C@@H](COC(=O)NC(C)CC(=O)O)[C@H](CC(C)C)CN1CC2` (stereo partly drawn) [Compound 5-26, 3-[({[(2R,3S,11bR)-9,10-dimethoxy-3-(2-methylpropyl)-1H,2H,3H,4H,6H,7H,11bH-pyrido[2,1-a]isoquinolin-2-yl]methoxy}carbonyl)amino]butanoic acid]: the Ki in data set [1] is over 500 nM. Further, the “S9 Assay (ability to form compound 1-1)” value in data set [2] was “+”.
The compound `COc1cc2c(cc1OC)[C@H]1C[C@@H](COC(=O)N3CC(C(=O)O)C3)[C@H](CC(C)C)CN1CC2` [Compound 5-27, 1-({[(2R,3S,11bR)-9,10-dimethoxy-3-(2-methylpropyl)-1H,2H,3H,4H,6H,7H,11bH-pyrido[2,1-a]isoquinolin-2-yl]methoxy}carbonyl)azetidine-3-carboxylic acid] registered a Ki in data set [1] of over 500 nM. The “S9 Assay (ability to form compound 1-1)” value in data set [2] was “+”.
On to `COc1cc2c(cc1OC)[C@H]1C[C@@H](COC(=O)NCC(=O)O)[C@H](CC(C)C)CN1CC2` [Compound 5-30], for which the Ki in data set [1] was over 500 nM. Further, the “S9 Assay (ability to form compound 1-1)” value in data set [2] is recorded as “+”.
Compound `COc1cc2c(cc1OC)[C@H]1C[C@@H](COC(=O)N(C)C(C(=O)O)C(C)C)[C@H](CC(C)C)CN1CC2` (stereo partly drawn) [Compound 5-32, 2-[({[(2R,3S,11bR)-9,10-dimethoxy-3-(2-methylpropyl)-1H,2H,3H,4H,6H,7H,11bH-pyrido[2,1-a]isoquinolin-2-yl]methoxy}carbonyl)(methyl)amino]-3-methylbutanoic acid] returned an inhibition constant (Ki) in data set [1] of under 10 nM. Moreover, the “S9 Assay (ability to form compound 1-1)” value in data set [2] is “++”.
Take `COc1cc2c(cc1OC)[C@H]1C[C@@H](COC(=O)NCC3(CC(=O)O)CCCCC3)[C@H](CC(C)C)CN1CC2` [Compound 5-34, 2-(1-{[({[(2R,3S,11bR)-9,10-dimethoxy-3-(2-methylpropyl)-1H,2H,3H,4H,6H,7H,11bH-pyrido[2,1-a]isoquinolin-2-yl]methoxy}carbonyl)amino]methyl}cyclohexyl)acetic acid]: the Ki in data set [1] was 10 to 500 nM. Also, the “S9 Assay (ability to form compound 1-1)” value in data set [2] is “+”.
In the case of `COc1cc2c(cc1OC)[C@H]1C[C@@H](COC(=O)NC3(C(=O)O)CCCC3)[C@H](CC(C)C)CN1CC2` [Compound 5-39, 1-[({[(2R,3S,11bR)-9,10-dimethoxy-3-(2-methylpropyl)-1H,2H,3H,4H,6H,7H,11bH-pyrido[2,1-a]isoquinolin-2-yl]methoxy}carbonyl)amino]cyclopentane-1-carboxylic acid], in data set [1], the Ki lay within 10 to 500 nM. Also, in data set [2], the “S9 Assay (ability to form compound 1-1)” value is “+++”.
In data set [1], `COc1cc2c(cc1OC)[C@H]1C[C@@H](COC(=O)NC3C4CCC(C4)C3C(=O)O)[C@H](CC(C)C)CN1CC2` (stereo partly drawn) [Compound 5-40, 3-[({[(2R,3S,11bR)-9,10-dimethoxy-3-(2-methylpropyl)-1H,2H,3H,4H,6H,7H,11bH-pyrido[2,l-a]isoquinolin-2-yl]methoxy}carbonyl)amino]bicyclo[2.2.1]heptane-2-carboxylic acid] gave a Ki of 10 to 500 nM. The “S9 Assay (ability to form compound 1-1)” value in data set [2] is listed as “+”.
In the same order, the values of `COc1cc2c(cc1OC)[C@H]1C[C@@H](COC(=O)NC3CCCCC3C(=O)O)[C@H](CC(C)C)CN1CC2` (stereo partly drawn) [Compound 5-41, 2-[({[(2R,3S,11bR)-9,10-dimethoxy-3-(2-methylpropyl)-1H,2H,3H,4H,6H,7H,11bH-pyrido[2,1-a]isoquinolin-2-yl]methoxy}carbonyl)amino]cyclohexane-1-carboxylic acid] are 10 to 500 nM and “+”.
Compound `COc1cc2c(cc1OC)[C@H]1C[C@@H](COC(=O)N(C)CC(=O)O)[C@H](CC(C)C)CN1CC2` [Compound 5-42, 2-[({[(2R,3S,11bR)-9,10-dimethoxy-3-(2-methylpropyl)-1H,2H,3H,4H,6H,7H,11bH-pyrido[2,1-a]isoquinolin-2-yl]methoxy}carbonyl)(methyl)amino]acetic acid] returned an inhibition constant (Ki) in data set [1] of 10 to 500 nM. In data set [2], the “S9 Assay (ability to form compound 1-1)” value was “++”.
In turn, `COc1cc2c(cc1OC)[C@H]1C[C@@H](COC(=O)N3CCC(C(=O)O)(N(C)C)CC3)[C@H](CC(C)C)CN1CC2` [Compound 5-43, 1-({[(2R,3S,11bR)-9,10-dimethoxy-3-(2-methylpropyl)-1H,2H,3H,4H,6H,7H,11bH-pyrido[2,1-a]isoquinolin-2-yl]methoxy}carbonyl)-4-(dimethylamino)piperidine-4-carboxylic acid] registered a Ki in data set [1] of over 500 nM. Moreover, in data set [2], the “S9 Assay (ability to form compound 1-1)” value is on record as “+”.
Take `COc1cc2c(cc1OC)[C@H]1C[C@@H](COC(=O)N(C)C(CC(C)C)C(=O)O)[C@H](CC(C)C)CN1CC2` (stereo partly drawn) [Compound 5-46, 2-[({[(2R,3S,11bR)-9,10-dimethoxy-3-(2-methylpropyl)-1H,2H,3H,4H,6H,7H,11bH-pyrido[2,1-a]isoquinolin-2-yl]methoxy}carbonyl)(methyl)amino]-4-methylpentanoic acid]: the inhibition constant (Ki) in data set [1] is over 500 nM. Moreover, the “S9 Assay (ability to form compound 1-1)” value in data set [2] was “++”.
Regarding `COc1cc2c(cc1OC)[C@H]1C[C@@H](COC(=O)N[C@@H](C)C(=O)O)[C@H](CC(C)C)CN1CC2` [Compound 5-47, (2S)-2-[({[(2R,3S,11bR)-9,10-dimethoxy-3-(2-methylpropyl)-1H,2H,3H,4H,6H,7H,11bH-pyrido[2,1-a]isoquinolin-2-yl]methoxy}carbonyl)amino]propanoic acid], the Ki in data set [1] fell in the range of 10 to 500 nM. Also, the “S9 Assay (ability to form compound 1-1)” value in data set [2] is given as “+”.
The matching figures for `COc1cc2c(cc1OC)[C@H]1C[C@@H](COC(=O)N3CCC(C(=O)O)C3)[C@H](CC(C)C)CN1CC2` (stereo partly drawn) [Compound 5-49, 1-({[(2R,3S,11bR)-9,10-dimethoxy-3-(2-methylpropyl)-1H,2H,3H,4H,6H,7H,11bH-pyrido[2,1-a]isoquinolin-2-yl]methoxy}carbonyl)pyrrolidine-3-carboxylic acid]: 10 to 500 nM and “+”.
Turning to `COc1cc2c(cc1OC)[C@H]1C[C@@H](COC(=O)N3CCC(C(=O)O)CC3)[C@H](CC(C)C)CN1CC2` [Compound 5-52, 1-({[(2R,3S,11bR)-9,10-dimethoxy-3-(2-methylpropyl)-1H,2H,3H,4H,6H,7H,11bH-pyrido[2,1-a]isoquinolin-2-yl]methoxy}carbonyl)piperidine-4-carboxylic acid], in data set [1], the Ki is over 500 nM. Also, the “S9 Assay (ability to form compound 1-1)” value in data set [2] is recorded as “+”.
The compound `COc1cc2c(cc1OC)[C@H]1C[C@@H](COC(=O)N3CCC[C@@H](C(=O)O)C3)[C@H](CC(C)C)CN1CC2` [Compound 5-54, (3R)-1-({[(2R,3S,11bR)-9,10-dimethoxy-3-(2-methylpropyl)-1H,2H,3H,4H,6H,7H,11bH-pyrido[2,1-a]isoquinolin-2-yl]methoxy}carbonyl)piperidine-3-carboxylic acid] displayed a Ki in data set [1] of over 500 nM. Further, the “S9 Assay (ability to form compound 1-1)” value in data set [2] was “+”.
In the same order, the values of `COc1cc2c(cc1OC)[C@H]1C[C@@H](COC(=O)NCC[C@H](O)C(=O)O)[C@H](CC(C)C)CN1CC2` [Compound 5-56, (2S)-4-[({[(2R,3S,11bR)-9,10-dimethoxy-3-(2-methylpropyl)-1H,2H,3H,4H,6H,7H,11bH-pyrido[2,1-a]isoquinolin-2-yl]methoxy}carbonyl)amino]-2-hydroxybutanoic acid] are 10 to 500 nM and “+”.

The record behind these values is patent US11053242B2, “[9,10-dimethoxy-3-(2-methylpropyl)-1H,2H,3H,4H,6H,7H,11BH-pyrido-[2,1-a]isoquinolin-2-yl]methanol and compounds, compositions and methods relating thereto” (Neurocrine Biosciences, Inc., priority 2015, dated 2021).
